Data taken from US9260760B2, “Method for determining complete response to anticancer therapy” (Board of Regents, The University of Texas System, priority 2012, dated 2016).

Test system: unresectable metastatic colorectal cancer
Test: Study 3: maintenance XCEL after CR; RFS, PFS, OS
Type: in vivo, human
Excerpt: The institutional review board approved this study. […] All patients had clinical examinations, laboratory and CT scan every 2-3 months.
The principal investigator and two board-certified radiologists reviewed all the CT scan images. CR was defined according to the RECIST criteria as complete disappearance of measurable or none-measurable disease. Effective CR (eCR) was coined to describe normalization of an anatomical structure (e.g. nodes) that cannot regress completely. Confirmed CR included those patients who had CR by meeting the RECIST criteria or had achieved eCR or pathological CR. Near CR (nCR) were defined as almost complete disappearance (95-99%) of measurable disease on CT scan. Relapse free survival (RFS) was defined as the time from first radiologic CR to first recurrence, progression, or death. […] […] Treatment related toxicity was graded in accordance with the National Cancer Institute Common Toxicity Criteria for Adverse Events, version 3.0.
Continuous variables were summarized using the median (range) and categorical variables were summarized in frequency tables. Patients were censored at the date of last follow-up if their disease had not progressed or if they had not died. The death date was ascertained by searching (ssdi.genealogy.rootsweb.com) using social security numbers or phone follow-up. Therefore, it was possible for censored OS times to be greater than censored RFS and PFS times. Kaplan-Meier estimates for RFS, PFS, and OS were calculated, and group comparisons made using log-rank tests.

[1] = Disease-free interval prior to metastasis <6 mo
[2] = Disease-free interval prior to metastasis ≧6 mo
[3] = Response to first-line therapy no
[4] = Response to first-line therapy yes

SMILES: Cc1ccc(-c2cc(C(F)(F)F)nn2-c2ccc(S(N)(=O)=O)cc2)cc1 [XCEL]
- pathological CR rate (observed) (1/19): 5%
- two-year RFS (14 unresected and R1-2 resected patients): 71%
- 2-year RFS (95% CI) (All patients): 0.57 (0.39, 0.85)
- 3-year OS (95% CI) (All patients): 0.79 (0.59, 1.00)
- 2-year RFS (95% CI) [1]: 0.64 (0 44, 1.00)
- 3-year OS (95% CI) [1]: 0.75 (0.54, 1.00)
- 2-year RFS (95% CI) [2]: 0.50 (0.28, 0.88)
- 3-year OS (95% CI) [2]: 0.74 (0.39, 1.00)
- 2-year RFS (95% CI) (Extrahepatic no): 0.52 (0.15, 1.00)
- 3-year OS (95% CI) (Extrahepatic no): 0.79 (0.66, 1.00)
- 2-year RFS (95% CI) (Extrahepatic yes): 0.50 (.20, 1.00)
- 3-year OS (95% CI) (Extrahepatic yes): 0.67 (0.55, 1.00)
- 2-year RFS (95% CI) (LDH Abnormal): 0.33 (0.07, 1.00)
- 3-year OS (95% CI) (LDH Abnormal): 0.50 (0.13, 1.00)
- 2-year RFS (95% CI) (LDH Normal): 0.62 (0.42, 0.91)
- 3-year OS (95% CI) (LDH Normal): 0.85 (0.68, 1.00)
- 2-year RFS (95% CI) (Maintenance XCEL no): 0.00
- 3-year OS (95% CI) (Maintenance XCEL no): 0.38 (0.08, 1.00)
- 2-year RFS (95% CI) (Metastatic Number non-solitary): 0.60 (0.36, 1.00)
- 3-year OS (95% CI) (Metastatic Number non-solitary): 0.60 (0 29, 1.00)
- 2-year RFS (95% CI) (Metastatic Number solitary): 0.56 (0.31, 1.00)
- 3-year OS (95% CI) (Metastatic Number solitary): 0.89 (0.71, 1.00)
- 2-year RFS (95% CI) (Metastectomy R0): 0.20 (0.03, 1.00)
- 3-year OS (95% CI) (Metastectomy R0): 0.60 (0.29, 1.00)
- 2-year RFS (95% CI) (Metastectomy none/R1-2): 0.71 (0.51, 0.99)
- 3-year OS (95% CI) (Metastectomy none/R1-2): 0.60 (0.80, 1.00)
- 3-year PFS (R0-2 resected patients): 37%
- two-year RFS (R0 resected patients excluding the one pathological CR patient): 0%
- 2-year RFS (95% CI) (Radiation no): 0.69 (1.40, 1.00)
- 3-year OS (95% CI) (Radiation no): 0.75 (0.43, 1.00)
- 2-year RFS (95% CI) (Radiation yes): 0.50 (0.28, 0.88)
- 3-year OS (95% CI) (Radiation yes): 0.79 (0.56, 1.00)
- 2-year RFS (95% CI) [3]: 0.40 (0.25, 1.00)
- 3-year OS (95% CI) [3]: 0.65 (0.49, 1.00)
- 2-year RFS (95% CI) [4]: 0.58 (0.39, 1.00)
- 3-year OS (95% CI) [4]: 1.00
- 2-year RFS (95% CI) (Stage at Diagnosis II/III): 0.40 (0.19, 0.85)
- 3-year OS (95% CI) (Stage at Diagnosis II/III): 0.77 (0.53, 1.00)
- 2-year RFS (95% CI) (Stage at Diagnosis IV): 0.78 (0.55, 1.00)
- 3-year OS (95% CI) (Stage at Diagnosis IV): 0.83 (0.58, 1.00)
- 2-year RFS (95% CI) (Tumor size <8 cm): 0.62 (0.39, 1.00)
- 3-year OS (95% CI) (Tumor size <8 cm): 1.00
- 2-year RFS (95% CI) (Tumor size ≧8 cm): 0.40 (0.14, 1.00)
- 3-year OS (95% CI) (Tumor size ≧8 cm): 0.60 (0.29, 1.00)
- Two-year RFS (all 19 patients): 57%
- median RFS (all 19 patients): not reached
- CEA or CA19.9 during CR (all patients with elevated serum CEA or CA19.9): normalized
- 3-year PFS (confirmed CR patients): 100%
- CR (eight of nine first-line irinotecan responders, XCEL alone or with radiation): 88%
- two-year RFS (five R0 resected patients): 20%
- estimated 3-year survival rate (from CR): 79%
- four year OS (from CR, maintenance XCEL): 93%
- median OS (from XCEL): 51.9 months
- estimated 3-year survival rate (from diagnosis): 95%
- median OS (from onset of metastasis): 73.3 months
- median time from CR to relapse (in vivo): 13.1 months
- relapse while on XCEL (maintenance XCEL): no patient relapsed while on XCEL
- Two-year RFS estimate (maintenance XCEL group): 73%
- 3-year PFS (unconfirmed CR patients): 0%
- 3 year RFS (whole cohorts): 57%
- Two-year RFS estimate (without maintenance XCEL): 0%
